Experimental data from US12590950B2, “Methods for predicting ER-mediated DNA damage” (UNIVERSITY OF MASSACHUSETTS, priority 2019, dated 2026).
“Also recorded” adds a separate entry of the source.

Experiments:
MCF-7 cells = experiment: γH2AX immunostaining (DNA damage) in MCF-7 cells; assay type: cell-based, human; conditions: E2 10-100 nM, BP3 1-30 μM, PP 1-30 μM
Protocol: Immunostaining: Cells were grown in clearing media for 48 h and plated on 20 mm coverslip in 12 well plates with a density of 2×10^5 cells/well. […] Cells were washed with 1×PBS, blocked in 2% BSA/PBS with 0.1% Triton-X 100 for 1 hr at room temperature (RT), incubated overnight with γH2AX antibody (Cell Signaling #9718 S) or ERα antibody (Santa Cruz Biotechnology #sc-8002) at 4° C. and 1 hour with secondary antibody. S9.6: Cells were fixed in ice-cold 100% methanol for 10 min at −20° C., permeabilized in 100% acetone for 1 min at RT, blocked for 30 min in saline sodium citrate pH 7 (SSC, 4×), 3% BSA, 0.1% Triton-X and incubated with S9.6 (Kerafast #ENH001) 2 hr at RT followed by 1 h with secondary antibody. If indicated, slides were treated with RNase H (NEB #M0297L) for 4 hr at 37° C. prior to incubation with primary antibody. Stained cells were mounted with Vectashield mounting medium containing DAPI (Vector Laboratories #H-1200). Slides were imaged at 60× (immersion oil) with Nikon A1 Spectral Confocal microscope. Analysis of γH2AX and S9.6 intensity per nucleus or foci per nucleus was calculated using Nikon analysis software, where DAPI was used as a mask for the nucleus.

mammary gland = experiment: Acute oral exposure of ovariectomized mice: nuclear γH2AX in mammary gland; assay type: in vivo, mouse; conditions: 4 days, E2 250, BP3 3,000, PP 10,000 μg/kg/day
From the text: (§1) Animal Treatment: Forty mature female mice (8 weeks old) BALB/c mice were purchased from Jackson Laboratory and housed in temperature-controlled facilities with a 12-hour alternating day/night light cycle and fed LabChow 5058 ad libitum. All procedures were in accordance with the national guidelines for the care and use of animals and approved by the University of Massachusetts Amherst's Institutional Animal Care and Use Committee.
(§2) The mice were ovariectomized before treatment. Briefly, each mouse was anaesthetized with a mix of isofluorance and oxygen. The flanks were shaved, sterilized with betadine and cleaned with alcohol. An incision was made to the skin on the right flank. The underlying muscle layer was nicked to reveal a small hole through which ovary was pulled out by grasping the periovarian fat. A Serrifin clamp was used to hold the ovary. After making sure the blood vessels were constricted to prevent […], the ovary was cut from the uterine horn. The periovarian fat was restored into the peritoneum. The peritoneum was closed with one or two stiches and the skin was closed with 9 mm wound clips. The procedure was repeated on the contralateral side. The mouse was monitored for a week post-procedure and wound clips were removed after 10 days. After 1 week of recovery, the mice began an acute oral treatment via pipette with one of three different compounds prepared in tocopherol-stripped corn oil for 4 days. Each mouse was administered 1 μL of oil per gram of body weight to deliver 250 μg/kg/d E2, 3000 μg/kg/d BP3 or 10000 μg/kg/d PP or vehicle control. […]
(§3) Immunostaining of mouse mammary gland: Freshly cut […] paraffin-embedded sections were deparaffinized/rehydrated with 100% xylenes 3 times for 5 min each, 2 times with 100% ethanol for 5 min each, 95% ethanol for 3 min and 70% ethanol for 3 min. […] Analysis of S9.6 intensity per nucleus or foci per nucleus were calculated using Nikon analysis software, where DAPI was used as a mask for the nucleus. […] Positive cells were counted using ImageJ software. 1200 cells were counted to determine percent Ki67 positive.

mammary epithelium [1] = experiment: Acute oral exposure of ovariectomized mice: Ki67 proliferation of luminal epithelial cells; assay type: in vivo, mouse; conditions: 4 days, E2 250, BP3 3,000, PP 10,000 μg/kg/day
From the text: as §1, §2, §3

mammary epithelium [2] = experiment: Acute oral exposure of ovariectomized mice: nuclear S9.6 staining of mammary epithelium; assay type: in vivo, mouse; conditions: 4 days, E2 250, BP3 3,000, PP 10,000 μg/kg/day
From the text: as §1, §2, §3

Areg and Pgr = experiment: Acute oral exposure of ovariectomized mice: Areg and Pgr expression in mammary gland; assay type: in vivo, mouse; conditions: 4 days, E2 250, BP3 3,000, PP 10,000 μg/kg/day
Protocol: RT-qPCR: RNA from T47D cells, MCF-7 Cells or flash-frozen 4th mammary gland was isolated with TRIzol (Thermofisher Scientific #15596018) and Direct-zol RNA MiniPrep Plus (Zymo Research #R2072). cDNA was prepared with Protoscript II First Strand cDNA Synthesis Kit (New England Biolabs #E6560S) and qPCR for TFF1, progesterone receptor (PGR) and Amphiregulin (AREG) was performed on CFX96 Real-Time System thermocycler (Bio-Rad) using primers in Table 1.
as §1, §2

T47D cells = experiment: Cell proliferation assay (alamar blue) in T47D cells; assay type: cell-based, human
Protocol: Cell Proliferation Assay: T47D cells grown in clearing media for 72 h was plated as 100 μl of cells suspension having 5000 or 10000 cells per well on five 96 well plates (one for each day). The 96 well plate had 12 cell-free wells for a blank and 7 wells per treatment on each plate. After 24 h, 100 μl of E2, BP3 or PP containing media was added to appropriate wells on each plate to reach the desired final concentration in each well. All plates were maintained in a 37° C., 5% CO2 incubator until media was exchanged, on one plate per day, for 10% Alamar Blue in plating media. Plates were read at the same time each day at 4 hr and 8 hr after media exchange on a BioTek Synergy 2 plate reader (Winooski, VT) at 570 nm and 600 nm. Percent alamar blue reduction was calculated as per the following equation on the AlamarBlue protocol: […]

C[C@]12CC[C@@H]3c4ccc(O)cc4CC[C@H]3[C@@H]1CC[C@@H]2O [E2, 17β-estradiol, reference compound]
nuclear γH2AX intensity (MCF-7 cells): dose-dependent increase in nuclear γH2AX intensity
nuclear γH2AX intensity in the mammary gland vs vehicle control (mammary gland): significantly higher
proliferation (Ki67) of mammary luminal epithelial cells (mammary epithelium [1]): stimulated
nuclear S9.6 staining in mammary epithelium over control treated animals (mammary epithelium [2]): 3.8 fold
transcriptional activation of ER-target genes (Areg and Pgr) (Areg and Pgr): stimulated
Slope of growth curve (T47D cells; 0.5 nM): 0.08495

CCCOC(=O)c1ccc(O)cc1 [PP, propyl parahydroxybenzoate]
nuclear γH2AX intensity (MCF-7 cells): dose-dependent increase in nuclear γH2AX intensity
nuclear γH2AX intensity in the mammary gland vs vehicle control (mammary gland): increases
proliferation (Ki67) of mammary luminal epithelial cells (mammary epithelium [1]): neither BP3 nor PP elicited significant responses
nuclear S9.6 staining in mammary epithelium over control treated animals (mammary epithelium [2]): 3.8 fold
transcriptional activation of ER-target genes (Areg and Pgr) (Areg and Pgr): neither BP3 nor PP elicited significant responses
Slope of growth curve (T47D cells; 1 μM): 0.01856
Slope of growth curve (T47D cells; 10 μM): 0.06387
proliferation (T47D cells; 10 μM): stimulates significant proliferation

COc1ccc(C(=O)c2ccccc2)c(O)c1 [BP3, 2-Hydroxy-4-methoxybenzophenone]
nuclear γH2AX intensity (MCF-7 cells): dose-dependent increase in nuclear γH2AX intensity
nuclear γH2AX intensity in the mammary gland vs vehicle control (mammary gland): significantly higher; also recorded: increases
proliferation (Ki67) of mammary luminal epithelial cells (mammary epithelium [1]): neither BP3 nor PP elicited significant responses
nuclear S9.6 staining in mammary epithelium over control treated animals (mammary epithelium [2]): 2.5 fold
transcriptional activation of ER-target genes (Areg and Pgr) (Areg and Pgr): neither BP3 nor PP elicited significant responses
Slope of growth curve (T47D cells; 5 μM): 0.0202
Slope of growth curve (T47D cells; 50 μM): 0.01581
proliferation (T47D cells; 5 or 50 μM): marginal effect
